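Five concentrations, 48 hours, 96-well plates. GI50 = concentration required for 50% inhibition of growth.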 The source made the active and inactive calls. Cut-off read from the data, not from the text of the source: active = GI50 up to about 1.1 µM and inactive = higher.
Columns and labels:
Assay in all cases: DTP human tumour cell line panel, 48 h
HCT-15 = tested on: HCT-15
CAKI-1 = tested on: CAKI-1
OVCAR-4 = tested on: OVCAR-4
SF-539 = tested on: SF-539
COLO 205 = tested on: COLO 205
K562 = tested on: K562
SK-OV-3 = tested on: SK-OV-3
DU-145 = tested on: DU-145
KM12 = tested on: KM12
MDA-N = tested on: MDA-N
RPMI-8226 = tested on: RPMI-8226
U-251 = tested on: U-251
NCI-H23 = tested on: NCI-H23
SNB-75 = tested on: SNB-75
HCC 2998 = tested on: HCC 2998
M14 = tested on: M14
MDA-MB-231 = tested on: MDA-MB-231
SF-268 = tested on: SF-268
HL-60 = tested on: HL-60
RXF 393 = tested on: RXF 393

| Structure (SMILES) | GI50 (HCT-15) [µM] | GI50 (CAKI-1) | GI50 (OVCAR-4) | GI50 (SF-539) | GI50 (COLO 205) | GI50 (K562) | GI50 (SK-OV-3) | GI50 (DU-145) | GI50 (KM12) | GI50 (MDA-N) | GI50 (RPMI-8226) | GI50 (U-251) | GI50 (NCI-H23) | GI50 (SNB-75) | GI50 (HCC 2998) | GI50 (M14) | GI50 (MDA-MB-231) | GI50 (SF-268) | GI50 (HL-60) | GI50 (RXF 393) |
| --- | --- | --- | --- | --- | --- | --- | --- | --- | --- | --- | --- | --- | --- | --- | --- | --- | --- | --- | --- | --- |
| O=c1cc(/N=N\c2ccc(Cl)cc2)[nH]c(=O)[nH]1 | 1.96 | 0.923 µM (active) | 4.42 µM (inactive) | 4.44 µM (inactive) | 2.33 µM (inactive) | 3.43 µM (inactive) | 14.7 µM (inactive) | 9.23 µM (inactive) | 5.27 µM (inactive) | 4.71 µM (inactive) | 3.19 µM (inactive) | 4.81 µM (inactive) | 7.67 µM (inactive) | 14.5 µM (inactive) | 3.78 µM (inactive) | 3.95 µM (inactive) | 3.6 µM (inactive) | 4.61 µM (inactive) | 1.11 µM (active) | 6.37 µM (inactive) |
| C[C@@H](CO)C1=CC(C#C[Si](C)(C)C)N(C(=O)Oc2ccccc2)c2ccccc21 (stereo not given in full) | 6.37 | 24 µM (inactive) | 12.6 µM (inactive) | 17.8 µM (inactive) | 23.8 µM (inactive) | 1.49 µM (inactive) | 23.3 µM (inactive) | 21.6 µM (inactive) | 14.2 µM (inactive) | 7.08 µM (inactive) | 24.9 µM (inactive) | 18.3 µM (inactive) | 6.75 µM (inactive) | 10.1 µM (inactive) | 15.2 µM (inactive) | 16.3 µM (inactive) | 17.7 µM (inactive) | 16.5 µM (inactive) | 17.1 µM (inactive) | 5.86 µM (inactive) |
| COc1ccc(C2C3=C(COC3=O)OC(C)(C)Oc3cc4c(cc32)OCO4)cc1 (stereo not given) | 23.7 | 24.1 µM (inactive) | 33.9 µM (inactive) | 24.2 µM (inactive) | 16.1 µM (inactive) | 5.13 µM (inactive) | 50.1 µM (inactive) | 32.5 µM (inactive) | 8.81 µM (inactive) | 2.96 µM (inactive) | 34.1 µM (inactive) | 31.8 µM (inactive) | 34.4 µM (inactive) | 9.46 µM (inactive) | 40.5 µM (inactive) | 24.2 µM (inactive) | 18.6 µM (inactive) | 44.6 µM (inactive) | 12 µM (inactive) | 36.6 µM (inactive) |
| Nc1c2cc3ccc2nc2ccc(cc12)OCCOCCOCCOCCOCCOCCO3 | > 10 | > 10 µM (inactive) | > 10 µM (inactive) | > 10 µM (inactive) | > 10 µM (inactive) | > 10 µM (inactive) | > 10 µM (inactive) | > 10 µM (inactive) | > 10 µM (inactive) | > 10 µM (inactive) | > 10 µM (inactive) | > 10 µM (inactive) | > 10 µM (inactive) | > 10 µM (inactive) | > 10 µM (inactive) | > 10 µM (inactive) | > 10 µM (inactive) | > 10 µM (inactive) | > 10 µM (inactive) | > 10 µM (inactive) |
| C[C@H](C(=O)N1C(=O)O[C@@H](c2ccccc2)[C@H]1C)[C@H](c1ccccc1)N(Cc1ccccc1)OC(=O)c1ccccc1 | 29.6 | 77.1 µM (inactive) | 21 µM (inactive) | 71.3 µM (inactive) | 38.5 µM (inactive) | 31.6 µM (inactive) | 38.8 µM (inactive) | 66.1 µM (inactive) | 49.3 µM (inactive) | 48.9 µM (inactive) | 21.7 µM (inactive) | 31.9 µM (inactive) | 65.3 µM (inactive) | 29.9 µM (inactive) | 21.6 µM (inactive) | 24.3 µM (inactive) | 94 µM (inactive) | 33.8 µM (inactive) | 29 µM (inactive) | 73.8 µM (inactive) |
| CC(C)n1c2c([n+](C)c1/C=C/c1ccccc1)C(=O)c1ccccc1C2=O | 3.67 | 2.79 µM (inactive) | 0.0278 µM (active) | 0.0334 µM (active) | < 0.01 µM (active) | 0.0592 µM (active) | 0.299 µM (active) | 0.34 µM (active) | 0.132 µM (active) | 0.299 µM (active) | 0.0575 µM (active) | 0.147 µM (active) | 0.0908 µM (active) | 0.419 µM (active) | 0.272 µM (active) | 0.318 µM (active) | 0.166 µM (active) | 0.0703 µM (active) | 0.02 µM (active) | 0.322 µM (active) |
| C/C(=N/NC(=S)N1CCCCC1)c1ccccc1O | > 31.6 | > 31.6 µM (inactive) | > 31.6 µM (inactive) | > 100 µM (inactive) | 23.4 µM (inactive) | 22.8 µM (inactive) | > 31.6 µM (inactive) | > 31.6 µM (inactive) | 26.1 µM (inactive) | > 31.6 µM (inactive) | 13.6 µM (inactive) | > 31.6 µM (inactive) | > 31.6 µM (inactive) | > 10 µM (inactive) | > 31.6 µM (inactive) | > 31.6 µM (inactive) | > 100 µM (inactive) | 21.5 µM (inactive) | > 31.6 µM (inactive) | > 31.6 µM (inactive) |
| COc1nc(C)nc2c1ncn2Cc1ccccc1 | > 100 | 66.2 µM (inactive) | > 100 µM (inactive) | > 100 µM (inactive) | > 100 µM (inactive) | > 100 µM (inactive) | > 100 µM (inactive) | > 100 µM (inactive) | > 100 µM (inactive) | > 100 µM (inactive) | > 100 µM (inactive) | > 100 µM (inactive) | > 100 µM (inactive) | > 100 µM (inactive) | > 100 µM (inactive) | > 100 µM (inactive) | > 100 µM (inactive) | 57.3 µM (inactive) | > 100 µM (inactive) | > 100 µM (inactive) |
| COc1ccc2nc3cc([N+](=O)[O-])ccc3c(NNc3ccc(Cl)cc3)c2c1 | 45.5 | 0.16 µM (active) | 38.5 µM (inactive) | 37.8 µM (inactive) | 12.6 µM (inactive) | 14.8 µM (inactive) | 80 µM (inactive) | 38.9 µM (inactive) | 26.1 µM (inactive) | 31.6 µM (inactive) | 22.8 µM (inactive) | 21.7 µM (inactive) | 45.2 µM (inactive) | 40.1 µM (inactive) | 8.39 µM (inactive) | 34.7 µM (inactive) | 19.6 µM (inactive) | 43.5 µM (inactive) | 23.1 µM (inactive) | > 39.7 µM (inactive) |
| CN1CN(c2ccccc2)C2(CCNCC2)C1=O | > 100 | > 100 µM (inactive) | > 100 µM (inactive) | > 100 µM (inactive) | > 100 µM (inactive) | > 100 µM (inactive) | > 100 µM (inactive) | > 100 µM (inactive) | > 100 µM (inactive) | > 100 µM (inactive) | > 100 µM (inactive) | > 100 µM (inactive) | > 100 µM (inactive) | > 100 µM (inactive) | > 100 µM (inactive) | > 100 µM (inactive) | > 100 µM (inactive) | > 100 µM (inactive) | > 100 µM (inactive) | > 100 µM (inactive) |
| COc1ccc2oc3c(C)cc4c(OC)nnc(OC)c4c3c2c1 | 7.83 | 34 µM (inactive) | 34.6 µM (inactive) | 7.89 µM (inactive) | 10.8 µM (inactive) | 6.87 µM (inactive) | > 100 µM (inactive) | > 100 µM (inactive) | 27.4 µM (inactive) | 18 µM (inactive) | 4.93 µM (inactive) | 1.98 µM (inactive) | 17.9 µM (inactive) | 4.88 µM (inactive) | 16.7 µM (inactive) | 16.5 µM (inactive) | 22.9 µM (inactive) | 6.53 µM (inactive) | 13.5 µM (inactive) | 58.1 µM (inactive) |
| COC(=O)CCN1CCN(CCO)CC1C (stereo not given) | > 10 | > 10 µM (inactive) | > 10 µM (inactive) | > 10 µM (inactive) | > 10 µM (inactive) | > 10 µM (inactive) | > 10 µM (inactive) | > 10 µM (inactive) | > 10 µM (inactive) | > 10 µM (inactive) | > 10 µM (inactive) | > 10 µM (inactive) | > 10 µM (inactive) | > 10 µM (inactive) | > 10 µM (inactive) | > 10 µM (inactive) | > 10 µM (inactive) | > 10 µM (inactive) | > 10 µM (inactive) | > 10 µM (inactive) |
| COc1cccc(N2C(=O)C3c4[nH]c5ccccc5c4C4CCCC4C3C2=O)c1 (stereo not given) | > 10 | 7.16 µM (inactive) | 2.26 µM (inactive) | 7 µM (inactive) | > 10 µM (inactive) | > 10 µM (inactive) | 6.64 µM (inactive) | > 10 µM (inactive) | > 10 µM (inactive) | > 10 µM (inactive) | > 10 µM (inactive) | 4.06 µM (inactive) | > 10 µM (inactive) | 2.24 µM (inactive) | > 10 µM (inactive) | 3.06 µM (inactive) | 2.25 µM (inactive) | 9.66 µM (inactive) | > 10 µM (inactive) | 9.04 µM (inactive) |
| O=C(N/N=C\c1ccc(Cl)cc1)Nc1cccc2ccccc12 | 3.36 | 2.42 µM (inactive) | 2.59 µM (inactive) | 5.41 µM (inactive) | 4.75 µM (inactive) | 3.23 µM (inactive) | 2.71 µM (inactive) | 5.57 µM (inactive) | 2.61 µM (inactive) | 2.21 µM (inactive) | 5.66 µM (inactive) | 2.96 µM (inactive) | 9.71 µM (inactive) | 2.4 µM (inactive) | 2.4 µM (inactive) | 7.16 µM (inactive) | 8.89 µM (inactive) | 6.44 µM (inactive) | 4.93 µM (inactive) | 3.01 µM (inactive) |

Source: ChEMBL document CHEMBL1201862, “PubChem BioAssay data set” (2004)
